This note sets out measurements from PubChem BioAssay AID608 (Sanford-Burnham Center for Chemical Genomics, 2007).

The source made the active and inactive calls. The rule behind the calls is not given here.

Peptidyl-prolyl cis-trans isomerase FKBP1A (Homo sapiens), sequence (P62942 whole entry, looked up): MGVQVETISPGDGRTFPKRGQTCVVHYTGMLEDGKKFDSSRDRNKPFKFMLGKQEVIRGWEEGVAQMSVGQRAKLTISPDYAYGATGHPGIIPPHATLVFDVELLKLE

This test has as its target Peptidyl-prolyl cis-trans isomerase FKBP1A (Homo sapiens) (UniProt P62942). The test can be described thus: small-molecule binding to FKBP12 – biophysical, NMR detection (AID 608). As to conditions: purified FKBP12.
By Kd is commonly meant a measure of binding affinity in units of concentration. As for `Fc1cccc(F)c1CN1CCN(c2ncccn2)CC1`, the Kd was > 4 mM (inactive).

With `CN(C)c1nc(N)nc(Cn2ccnc2)n1`, the Kd is > 4 mM (inactive).

On to `Cc1nnsc1C(=O)Nc1cccc(S(N)(=O)=O)c1`, for which the Kd was > 4 mM (inactive).

On to `c1cc2c(cc1[C@H]1OC[C@H]3[C@@H]1CO[C@H]3c1ccc3c(c1)OCO3)OCO2`, for which the Kd is > 4 mM (inactive).

On to `O=c1ccn([C@@H]2O[C@H](COP(=O)(O)OP(=O)(O)OP(=O)(O)O)[C@@H](O)[C@H]2O)c(=O)[nH]1`, for which the Kd was > 4 mM (inactive).

As to `O=C(c1cccc(-n2cnnn2)c1)N1CCOCC1`, the Kd is > 4 mM (inactive).

As to `O=C(/C=C/C=C/c1ccc2c(c1)OCO2)N1CCCCC1`, the Kd is > 4 mM (inactive).

Take `CCc1ccccc1OCc1nnc(N)s1`: the Kd is > 4 mM (inactive).

On to `Cc1ccc(SC(C)c2nc(-c3ccncc3)no2)cc1` (stereo not drawn), for which the Kd result is “inactive”.

Turning to `CC(C)(C)NC(=O)CN1C(=O)c2ccccc2S1(=O)=O`, the Kd was > 4 mM (inactive).

As for `C=CCSc1[nH]c(=O)cc(C)c1C(N)=O`, the Kd was > 4 mM (inactive).

Consider `O=S(=O)(Nc1ccc(F)cc1)N1CCCCC1`, for which the Kd entry was “inactive”.

With `OC(c1ccccc1)c1ccccn1` (stereo not drawn), the Kd is > 4 mM (inactive).

For `NC(=O)CS(=O)(=O)c1ccc(Cl)cc1`, the Kd is > 4 mM (inactive).

Take `S=C(c1ccc(N2CCOCC2)cc1)N1CCOCC1`: the Kd was > 4 mM (inactive).

Consider `CCNC(=S)N1CCCC(C(N)=O)C1` (stereo not drawn), for which the Kd is > 4 mM (inactive).

`Cc1nc(-c2ccc(C(=O)O)s2)cs1`: the Kd was > 4 mM (inactive).

Take `C[C@H]1OC(O[C@H]2[C@@H](O)CC(O[C@H]3[C@@H](O)C[C@H](O[C@H]4CC[C@]5(C)C6CC[C@]7(C)[C@@H](C8=CC(=O)OC8)[C@@H](O)C[C@]7(O)[C@@H]6CC[C@@H]5C4)O[C@@H]3C)O[C@@H]2C)C[C@H](O)C1O` (stereo partly drawn): the Kd was > 4 mM (inactive).

For `Cc1ccc(NC(=O)C2CCCNC2=O)nc1` (stereo not drawn), the Kd was > 4 mM (inactive).

For `CCSc1nc2ccccc2[nH]1`, the Kd is > 4 mM (inactive).

For `COc1ccc(-c2oc3ccccc3c(=O)c2O)cc1OC`, the Kd is > 4 mM (inactive).

Consider `C/C=C/c1ccc2c(c1)OCO2`, for which the Kd is > 4 mM (inactive).

As for `CN1C(=O)c2ccc(C(=O)NCc3ccccc3)cc2C1=O`, the Kd was > 4 mM (inactive).

With `O=c1cccc2n1C[C@H]1CNCC2C1`, the Kd was > 4 mM (inactive).

As to `Cc1cc(=O)[nH]c(NCC(=O)O)n1`, the Kd is > 4 mM (inactive).

Consider `O=c1c2ccccc2oc2ccc(O)cc12`, for which the Kd was > 4 mM (inactive).

As to `CCCCCC(=O)Cc1cc(O)cc(O)c1C(=O)Oc1cc(CC(=O)CCCCC)c(C(=O)O)c(OC)c1`, the Kd is > 4 mM (inactive).

With `C=CC1=C(C)/C(=C/c2[nH]c(Cc3[nH]c(/C=C4\NC(=O)C(C)=C4C=C)c(C)c3CCC(=O)O)c(CCC(=O)O)c2C)NC1=O`, the Kd was > 4 mM (inactive).

Take `Nc1cc(=O)[nH]c(=S)n1-c1cccc(C(F)(F)F)c1`: the Kd is > 4 mM (inactive).

As to `CN1C(=O)c2ccc(N3CCCC3)cc2C1=O`, the Kd was > 4 mM (inactive).

As to `N/C(=N/O)C1COc2ccccc2O1` (stereo not drawn), the Kd is > 4 mM (inactive).

With `Cn1c(O)c(C2=NC(=S)NC2=O)c2ccccc21`, the Kd is > 4 mM (inactive).

In the case of `O=C(Nc1ccccc1[N+](=O)[O-])c1ccc(=O)[nH]n1`, the Kd is > 4 mM (inactive).

Regarding `CSc1n[nH]c(NCc2cccs2)n1`, the Kd is > 4 mM (inactive).

For the molecule `Cc1ccc(N2C(=O)C3C4C=CC(O4)C3C2=O)cc1` (stereo not drawn), the Kd was > 4 mM (inactive).

On to `O=C1CCNc2ccccc2N1`, for which the Kd was > 4 mM (inactive).

On to `Nc1nnc(SCc2ccccc2Cl)s1`, for which the Kd was > 4 mM (inactive).

For `O=C(O)c1cccc2nsnc12`, the Kd was > 4 mM (inactive).

Turning to `NC12CC3CC(C1)CC(O)(C3)C2`, the Kd was > 4 mM (inactive).

Take `O=C(NS(=O)(=O)c1ccccc1)c1ccccc1F`: the Kd is > 4 mM (inactive).

For `Cc1cc(C(=O)NN2CCOCC2)c(C)o1`, the Kd was > 4 mM (inactive).

As to `CN1CCC(NC(=O)c2cccnc2)CC1`, the Kd was > 4 mM (inactive).

As for `COc1ccc2ccc(=O)oc2c1`, the Kd was > 4 mM (inactive).

As to `Cc1cc(N2CCCC2=O)c(N)cc1N`, the Kd is > 4 mM (inactive).

As to `Cc1ccc(C(C)C)cc2c(C)ccc1-2`, the Kd was > 4 mM (inactive).

Turning to `O=C(O)CSCC(=O)Nc1cccc(O)c1`, the Kd is > 4 mM (inactive).

Turning to `O=C(O)c1cccc2c1OCC2`, the Kd was > 4 mM (inactive).

On to `COc1ccc(NC(=O)C2CC(=O)N=C(N)S2)cc1` (stereo not drawn), for which the Kd was > 4 mM (inactive).

On to `O=S1(=O)NC(=NCc2ccco2)c2ccccc21`, for which the Kd is > 4 mM (inactive).

Regarding `COc1ccc2c(=O)c(CC(=O)O)coc2c1`, the Kd is > 4 mM (inactive).

As for `O=C(Nc1ccon1)c1csc2c1CCCC2`, the Kd is > 4 mM (inactive).

With `Nc1ccccc1N1CCOCC1`, the Kd is > 4 mM (inactive).

In the case of `CC(=O)Nc1ccc(-c2nc(C)c(C(C)=O)n2O)cc1`, the Kd is > 4 mM (inactive).

In the case of `COc1cc2c3cc1Oc1cc(ccc1O)C[C@@H]1c4c(cc(OC)c(O)c4Oc4ccc(cc4)C[C@@H]3N(C)CC2)CC[N+]1(C)C`, the Kd is > 4 mM (inactive).

On to `Nc1cccc(-n2cnnn2)c1`, for which the Kd is > 4 mM (inactive).

On to `C=C(C)C1Cc2c(ccc(C(=O)O)c2O)O1` (stereo not drawn), for which the Kd was > 4 mM (inactive).

Take `NC(=O)CSc1nnc(-c2cccnc2)o1`: the Kd was > 4 mM (inactive).

Consider `CC(C)c1ccc(SC(F)(F)C(=O)N2CCOCC2)cc1`, for which the Kd was 0.0028 mM.

As to `OC1CCN(C(=S)NC2CC2)CC1`, the Kd is > 4 mM (inactive).

Take `Cc1cccc(NC(=O)c2ccc(=O)[nH]n2)c1`: the Kd is > 4 mM (inactive).

Take `CCc1cc(=O)[nH]c(SCC(=O)NCCOC)n1`: the Kd is > 4 mM (inactive).

With `Cc1cc(C)nc(N(C#N)Cc2ccccc2)n1`, the Kd was > 4 mM (inactive).

As for `c1ccc2[nH]c(SCc3cscn3)nc2c1`, the Kd result is “inactive”.

For the molecule `Cn1ccnc1SCc1cc(=O)[nH]c2ccccc12`, the Kd was > 4 mM (inactive).

`O=C(Nc1ccccc1)c1cccc(N2C(=O)CCC2=O)c1`: the Kd is > 4 mM (inactive).

Turning to `C=C1C2CC[C@@]3(C)[C@H](c4ccoc4)OC(=O)C[C@]13O[C@H]1CC(=O)C(C)(C)C(CC(=O)OC)C21C` (stereo partly drawn), the Kd is > 4 mM (inactive).

Regarding `Cc1nc2nc(Cc3ccccc3)nn2c(C)c1Cl`, the Kd was > 4 mM (inactive).

On to `Cc1ccc2cc(CO)ccc2n1`, for which the Kd is > 4 mM (inactive).

`O=C(Oc1ccc2c(c1)CCC2)N1CCOCC1`: the Kd was > 4 mM (inactive).

For `O=C(O)c1ccc2[nH]c3c(c2c1)CSCC3`, the Kd is > 4 mM (inactive).

Turning to `Nc1ccc2c(c1)C(=O)OC2`, the Kd was > 4 mM (inactive).

As for `CN1CCN(C(=O)c2cc(-c3ccccc3)on2)CC1`, the Kd is > 4 mM (inactive).

In the case of `CC(O)c1ccc(C(C)O)cc1` (stereo not drawn), the Kd was > 4 mM (inactive).

On to `Nc1cc(N)nc(SCc2ccccc2)n1`, for which the Kd is > 4 mM (inactive).

`CC(=O)Nc1nnc(-c2ccco2)o1`: the Kd was > 4 mM (inactive).

With `C=CC(=O)N1CC2CC(C1)c1cccc(=O)n1C2` (stereo not drawn), the Kd was > 4 mM (inactive).

In the case of `COc1cccc2onc(N)c12`, the Kd was > 4 mM (inactive).

`CCn1nnc(NC(=O)c2ccccc2Br)n1`: the Kd is > 4 mM (inactive).

As for `Cc1ccn(S(=O)(=O)c2ccc(C(C)(C)C)cc2)n1`, the Kd was > 4 mM (inactive).

On to `O=C(c1cc2ccccc2o1)c1nc2c(n1O)CCCCC2`, for which the Kd is > 4 mM (inactive).

As to `NC(=O)C(=O)NCc1ccc(Cl)cc1`, the Kd is > 4 mM (inactive).

Turning to `COc1ccc2ccc(=O)oc2c1CC=C(C)C`, the Kd was > 4 mM (inactive).

With `Cc1oc2nc3c(c(=O)[nH]c(=O)n3C)n2c1C`, the Kd is > 4 mM (inactive).

In the case of `CN(C)C1CCS(=O)(=O)C1` (stereo not drawn), the Kd was > 4 mM (inactive).

`Cc1nc(CC(=O)O)c(-c2ccccc2)s1`: the Kd was > 4 mM (inactive).

Turning to `Cc1ccccc1NC(=O)/C=C\C(N)=O`, the Kd was > 4 mM (inactive).

Turning to `O=C(NC1CCS(=O)(=O)C1)C1CCCCC1` (stereo not drawn), the Kd was > 4 mM (inactive).

On to `Cn1c(=O)c2ccccc2n(Cc2ccccc2F)c1=O`, for which the Kd was > 4 mM (inactive).

With `COc1cc(/C=C/C(=O)O)ccc1O`, the Kd is > 4 mM (inactive).

`Cc1[nH]c(=O)[nH]c(=O)c1N1CCOCC1`: the Kd was > 4 mM (inactive).

For `COc1c(O)cc2oc3cc(O)c(CC=C(C)C)c(O)c3c(=O)c2c1CC=C(C)C`, the Kd was > 4 mM (inactive).

Turning to `CN1CCC(NC(=S)NC2CC2)CC1`, the Kd was > 4 mM (inactive).

Consider `O=C(O)C1CC2CC1CCC2O` (stereo not drawn), for which the Kd is > 4 mM (inactive).

For `O=C1NC(=O)C(C2SC(=O)NC2=O)S1` (stereo not drawn), the Kd was > 4 mM (inactive).

In the case of `Cc1cc(C)n2nc(NCc3ccccc3)nc2n1`, the Kd is > 4 mM (inactive).

Consider `O=C(O)c1ccc(N2CCOCC2)cc1`, for which the Kd is > 4 mM (inactive).

Regarding `Nc1nnc(C(F)(F)F)s1`, the Kd was > 4 mM (inactive).

Turning to `O=C(CSc1ncccn1)NCc1ccco1`, the Kd is > 4 mM (inactive).

Take `COc1ccc2c(c1OC)OC[C@@H](c1ccc(OC)c(OC)c1OC)C2`: the Kd was > 4 mM (inactive).

As for `O=C(c1ccc(Cl)c(F)c1F)N1CCCC1`, the Kd is > 4 mM (inactive).

As for `OCc1ccc2c(c1)OCO2`, the Kd is > 4 mM (inactive).

Regarding `COCCn1c(C)cc(O)cc1=O`, the Kd is > 4 mM (inactive).

Regarding `CC(=O)Oc1c(-c2ccccc2)oc2c(CC=C(C)C)c3c(c(OC(C)=O)c2c1=O)C=CC(C)(C)O3`, the Kd is > 4 mM (inactive).
